Data as given in ChEMBL document CHEMBL1156881, “Inhibition of monoamine oxidase by 8-benzyloxycaffeine analogues” (Bioorg Med Chem, 2010).
Calls of active or inactive are those of the source. No cut-off for these calls is given here.

Key:
[1] = target: T1, Amine oxidase [flavin-containing] A (Homo sapiens, UniProt P21397); experiment: Inhibition of human recombinant MAOA assessed as 4-hydroxyquinoline formation by fluorimetry
T1 sequence (P21397 whole entry): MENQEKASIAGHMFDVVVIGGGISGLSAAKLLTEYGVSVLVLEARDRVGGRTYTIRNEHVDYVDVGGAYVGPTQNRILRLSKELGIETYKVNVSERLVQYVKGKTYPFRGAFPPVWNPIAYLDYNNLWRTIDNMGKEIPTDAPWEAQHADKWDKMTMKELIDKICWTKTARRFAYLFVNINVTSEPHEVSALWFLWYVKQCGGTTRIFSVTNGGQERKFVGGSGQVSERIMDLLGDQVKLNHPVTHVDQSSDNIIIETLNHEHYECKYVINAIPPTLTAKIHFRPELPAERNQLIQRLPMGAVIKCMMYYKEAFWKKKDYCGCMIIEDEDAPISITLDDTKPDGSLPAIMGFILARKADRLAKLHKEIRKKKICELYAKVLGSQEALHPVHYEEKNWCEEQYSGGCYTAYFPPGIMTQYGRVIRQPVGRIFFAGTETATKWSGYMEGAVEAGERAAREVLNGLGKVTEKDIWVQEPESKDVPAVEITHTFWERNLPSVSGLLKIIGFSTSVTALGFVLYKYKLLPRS

Homo sapiens = organism: Homo sapiens; experiment: Selectivity for human recombinant MAOA over human recombinant MAOB
[2] = target: T2, Amine oxidase [flavin-containing] B (Homo sapiens, UniProt P27338); experiment: Inhibition of human recombinant MAOB assessed as 4-hydroxyquinoline formation by fluorimetry
T2 sequence (P27338 whole entry): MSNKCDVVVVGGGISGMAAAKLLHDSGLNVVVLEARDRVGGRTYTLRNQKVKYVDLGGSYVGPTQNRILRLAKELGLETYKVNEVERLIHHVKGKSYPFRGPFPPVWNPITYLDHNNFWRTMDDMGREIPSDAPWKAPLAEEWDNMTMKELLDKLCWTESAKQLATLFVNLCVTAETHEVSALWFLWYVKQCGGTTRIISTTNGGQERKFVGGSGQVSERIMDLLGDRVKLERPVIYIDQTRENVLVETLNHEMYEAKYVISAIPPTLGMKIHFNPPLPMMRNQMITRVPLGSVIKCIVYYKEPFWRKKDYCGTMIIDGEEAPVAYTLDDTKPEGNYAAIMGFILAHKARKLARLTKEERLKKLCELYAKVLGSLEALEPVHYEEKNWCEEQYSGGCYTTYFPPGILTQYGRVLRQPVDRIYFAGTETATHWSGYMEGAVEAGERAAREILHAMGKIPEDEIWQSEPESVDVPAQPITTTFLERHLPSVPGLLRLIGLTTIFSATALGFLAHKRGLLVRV

[3] = Inhibition of MAOB in baboon liver mitochondria assessed as MMDP+ production by spectrophotometry; set-up: species or system Papio hamadryas
[4] = target: T2, Amine oxidase [flavin-containing] B; experiment: Reversible inhibition of human recombinant MAOB at 0.23 uM assessed as 4-hydroxyquinoline formation by fluorimetry
Papio hamadryas [5] = organism: Papio hamadryas; experiment: Reversible inhibition of MAOB in baboon liver mitochondria at 0.28 uM assessed as MMDP+ production by spectrophotometry
[6] = target: T1, Amine oxidase [flavin-containing] A; experiment: Reversible inhibition of human recombinant MAOA at 1.31 uM assessed as 4-hydroxyquinoline formation by fluorimetry
[7] = target: T2, Amine oxidase [flavin-containing] B; experiment: Competitive inhibition of human recombinant MAOB by Lineweaver-Burke plot
Papio hamadryas [8] = organism: Papio hamadryas; experiment: Competitive inhibition of MAOB in baboon liver mitochondria by Lineweaver-Burke plot
[9] = target: T1, Amine oxidase [flavin-containing] A; experiment: Reversible inhibition of human recombinant MAOA assessed as 4-hydroxyquinoline formation by fluorimetry
[10] = target: T1, Amine oxidase [flavin-containing] A; experiment: Competitive inhibition of human recombinant MAOA by Lineweaver-Burke plot

| SMILES | IC50 [1] [nM] | Ki [1] [nM] | Ratio Ki (Homo sapiens) | IC50 [2] [nM] | Ki [2] [nM] | IC50 [3] [nM] | Ki [3] [nM] | inhibition (INH) [4] | inhibition (Papio hamadryas [5]) | inhibition (INH) [6] | inhibition (INH) [7] | inhibition (Papio hamadryas [8]) | inhibition (INH) [9] | inhibition (INH) [10] |
| --- | --- | --- | --- | --- | --- | --- | --- | --- | --- | --- | --- | --- | --- | --- |
| COc1cccc(COc2nc3c(c(=O)n(C)c(=O)n3C)n2C)c1 | 1010 | 340 | 0.31 | 3150 | 1100 | 1590 | 920 | – | – | – | – | – | – | – |
| Cc1cccc(COc2nc3c(c(=O)n(C)c(=O)n3C)n2C)c1 | 546 | 180 | 1.29 | 397 | 140 | 698 | 400 | – | – | – | – | – | – | – |
| Cn1c(=O)c2c(nc(OCc3ccccc3)n2C)n(C)c1=O | 1770 | 590 | 1.37 | 1240 | 430 | 2490 | 1440 | – | – | – | – | – | – | – |

Further compounds by falling IC50 [1], results first:

| IC50 [1] [nM] | Ki [1] [nM] | Ratio Ki (Homo sapiens) | IC50 [2] [nM] | Ki [2] [nM] | IC50 [3] [nM] | Ki [3] [nM] | inhibition (INH) [4] | inhibition (Papio hamadryas [5]) | inhibition (INH) [6] | inhibition (INH) [7] | inhibition (Papio hamadryas [8]) | inhibition (INH) [9] | inhibition (INH) [10] | SMILES |
| --- | --- | --- | --- | --- | --- | --- | --- | --- | --- | --- | --- | --- | --- | --- |
| 542 | 180 | 0.49 | 1070 | 370 | 534 | 310 | – | – | – | – | – | – | – | Cn1c(=O)c2c(nc(OCc3cccc(F)c3)n2C)n(C)c1=O |
| 152 | 51 | 0.039 | 3720 | 1300 | 112 | 65 | – | – | – | Active | Active | Active | Active | Cn1c(=O)c2c(nc(OCc3cccc(C(F)(F)F)c3)n2C)n(C)c1=O |
| 107 | 36 | 0.16 | 666 | 230 | 120 | 69 | Active | Active | Active | – | – | – | – | Cn1c(=O)c2c(nc(OCc3cccc(Cl)c3)n2C)n(C)c1=O |
| 68 | 23 | 0.069 | 941 | 330 | 113 | 65 | – | – | – | – | – | – | – | Cn1c(=O)c2c(nc(OCc3cccc(Br)c3)n2C)n(C)c1=O |
